Data as given in US20250262201A1, “COMPOUNDS AND METHODS USEFUL FOR STABILIZING PHENYLALANINE HYDROXYLASE MUTATIONS” (Agios Pharmaceuticals, Inc., priority 2022, published 2025).

Biological target: T1, human PAH with the R408W mutation (Homo sapiens, UniProt P00439, R408W)
T1 construct: expressed in transfected cells
T1 sequence (P00439 1-452 R408W): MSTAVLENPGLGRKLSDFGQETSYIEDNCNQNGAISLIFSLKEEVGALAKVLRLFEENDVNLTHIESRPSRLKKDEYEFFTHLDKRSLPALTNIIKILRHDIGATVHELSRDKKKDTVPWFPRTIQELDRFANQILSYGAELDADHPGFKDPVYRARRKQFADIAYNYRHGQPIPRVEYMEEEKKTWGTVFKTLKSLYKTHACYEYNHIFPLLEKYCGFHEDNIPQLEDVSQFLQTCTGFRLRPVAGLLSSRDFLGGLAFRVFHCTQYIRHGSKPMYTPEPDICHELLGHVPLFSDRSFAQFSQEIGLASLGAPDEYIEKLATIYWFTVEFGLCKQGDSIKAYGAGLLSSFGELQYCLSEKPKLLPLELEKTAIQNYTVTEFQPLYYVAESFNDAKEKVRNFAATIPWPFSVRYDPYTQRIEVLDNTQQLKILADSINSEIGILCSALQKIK
Assay: Cell Based Phenylalanine Flux Assay
Details: A375 cells expressing human R408W PAH; 24 hrs compound incubation; 13C-Tyrosine by LC-MS; average where tested multiple times; read-out: AC50

SMILES	AC50 [µM]
CN(C)Cc1ccc2c(C(=O)N3CCc4[nH]cnc4[C@@H]3c3ncc4ccccc4n3)cnn2c1 [Example 156, (R)-(6-((dimethylamino)methyl)pyrazolo[1,5-a]pyridin-3-yl)(4-(quinazolin-2-yl)-6,7-dihydro-1H-imidazo[4,5-c]pyridin-5(4H)-yl)methanone]	> 5
O=C(c1cnc(-c2ccccn2)o1)N1CCc2[nH]cnc2[C@@H]1c1ncc2ccccc2n1 [Example 157, (R)-(2-(pyridin-2-yl)oxazol-5-yl)(4-(quinazolin-2-yl)-6,7-dihydro-1H-imidazo[4,5-c]pyridin-5(4H)-yl)methanone]	> 5
O=C(c1cnc(-c2ccccn2)o1)N1CCc2[nH]cnc2[C@H]1c1ncc2ccccc2n1 [Example 158, (S)-(2-(pyridin-2-yl)oxazol-5-yl)(4-(quinazolin-2-yl)-6,7-dihydro-1H-imidazo[4,5-c]pyridin-5(4H)-yl)methanone]	0.5 to 1
O=C(c1nnc(N2CCC(F)CC2)o1)N1CCc2[nH]cnc2[C@H]1c1ncc2ccccc2n1 [Example 159, (S)-(5-(4-fluoropiperidin-1-yl)-1,3,4-oxadiazol-2-yl)(4-(quinazolin-2-yl)-6,7-dihydro-1H-imidazo[4,5-c]pyridin-5(4H)-yl)methanone]	1 to 5
O=C(c1nnc(N2CCC(F)CC2)o1)N1CCc2[nH]cnc2[C@@H]1c1ncc2ccccc2n1 [Example 160, (R)-(5-(4-fluoropiperidin-1-yl)-1,3,4-oxadiazol-2-yl)(4-(quinazolin-2-yl)-6,7-dihydro-1H-imidazo[4,5-c]pyridin-5(4H)-yl)methanone]	> 5
CC(C)(F)c1nnc(C(=O)N2CCc3[nH]cnc3[C@H]2c2ncc3ccccc3n2)o1 [Example 161, (S)-(5-(2-fluoropropan-2-yl)-1,3,4-oxadiazol-2-yl)(4-(quinazolin-2-yl)-6,7-dihydro-1H-imidazo[4,5-c]pyridin-5(4H)-yl)methanone]	0.5 to 1
CC(C)(F)c1nnc(C(=O)N2CCc3[nH]cnc3[C@@H]2c2ncc3ccccc3n2)o1 [Example 162, (R)-(5-(2-fluoropropan-2-yl)-1,3-oxadiazol-2-yl)(4-(quinazolin-2-yl)-6,7-dihydro-1H-imidazo[4,5-c]pyridin-5(4H)-yl)methanone]	> 5
Cn1ccc(-c2nnc(C(=O)N3CCc4[nH]cnc4[C@H]3c3ncc4ccccc4n3)o2)n1 [Example 165, (S)-(5-(1-methyl-1H-pyrazol-3-yl)-1,3,4-oxadiazol-2-yl)(4-(quinazolin-2-yl)-6,7-dihydro-1H-imidazo[4,5-c]pyridin-5(4H)-yl)methanone]	0.5 to 1

More lines, now with the values ahead:

AC50 [µM]	SMILES
< 0.5	O=C(c1nnc(-c2ncccc2F)o1)N1CCc2[nH]cnc2[C@H]1c1ncc2ccccc2n1 [Example 163, (S)-(5-(3-fluoropyridin-2-yl)-1,3,4-oxadiazol-2-yl)(4-(quinazolin-2-yl)-6,7-dihydro-1H-imidazo[4,5-c]pyridin-5(4H)-yl)methanone]
> 5	O=C(c1nnc(-c2ncccc2F)o1)N1CCc2[nH]cnc2[C@@H]1c1ncc2ccccc2n1 [Example 164, (R)-(5-(3-fluoropyridin-2-yl)-1,3,4-oxadiazol-2-yl)(4-(quinazolin-2-yl)-6,7-dihydro-1H-imidazo[4,5-c]pyridin-5(4H)-yl)methanone]
1 to 5	Cn1ccc(-c2nnc(C(=O)N3CCc4[nH]cnc4[C@@H]3c3ncc4ccccc4n3)o2)n1 [Example 166, (R)-(5-(1-methyl-1H-pyrazol-3-yl)-1,3,4-oxadiazol-2-yl)(4-(quinazolin-2-yl)-6,7-dihydro-1H-imidazo[4,5-c]pyridin-5(4H)-yl)methanone]
1 to 5	O=C(c1nnc(-c2ccc(F)cn2)o1)N1CCc2[nH]cnc2[C@@H]1c1ncc2ccccc2n1 [Example 167, (R)-(5-(5-fluoropyridin-2-yl)-1,3,4-oxadiazol-2-yl)(4-(quinazolin-2-yl)-6,7-dihydro-1H-imidazo[4,5-c]pyridin-5(4H)-yl)methanone]
